# Measurements from US20120283269A1, “Method and Compositions for Suppression of Aging” (HEALTH RESEARCH INC., priority 2009, published 2012).
# “Also recorded” adds a separate entry of the source.
# Legend:
# WI-38-tert cells = assay: Senescence / quiescence in WI-38-tert fibroblasts; format: cell-based, human
# Protocol: FIG. 4. […] HT-p21-a cells were treated with IPTG and infected with Ad-p53. After 3 days, cells were photographed (original magnification ×200): Upper panel. Under blue light to visualize cells expressing p53 (green cells). Lower panel. Under visible light to visualize all cells. Red arrows indicate cells lacking p53 expression. All of these cells show large, flat cell morphology. Green arrows indicate cells expressing p53. b-d. […] After 1 day, cells were lysed and immunoblot was performed as described in Methods for Example 1. c. […] Cells were then stained for beta-Gal activity and microphotographed. Scale bar—50 μm.d. […] Cells were then trypsinized and counted. […] Results are shown as percent of control.
# FIG. 11. Effects of Ad-p21 and Ad-p53 on senescent morphology in WI-38-tert fibroblasts. WI-38-tert cells were infected with either p21-expressing adenovirus (Ad-p21) or p53-expressing adenovirus (Ad-p53) or both. After 3 days, cells were stained for beta-Gal.
# (§1) Cell lines and reagents. HT-p21-9 and HT-p21-a cells are derivatives of HT1080 human fibrosarcoma cells, where p21 expression can be turned on or off using isopropyl-thio-galactosidase (IPTG) (7, 16, 28, 29, 36). […] HT-p16 cells are derivatives of HT1080 cells in which p16 expression can be turned on or off using IPTG (16, 36). WI-38-Tert, WI-38 are fibroblasts immortalized by telomerase. HT-p21-GSE56 cells: p53 inhibiting peptide GSE56 (18) was introduced into HT1080 p21-9 cells via a retroviral vector LXSE (37). Cells were grown in high glucose DMEM with 10% FC2 serum. WI-38-tert cells were grown in low glucose DMEM with 10% FCS. Rapamycin was obtained from LC Laboratories (Woburn, Mass.). IPTG (final concentration of 50 μg/ml) and FC2 were obtained from Sigma-Aldrich (St. Louis, Mo.).
# (§2) Beta-galactosidase staining Beta-gal staining was performed using Senescence-galactosidase staining kit (Cell Signaling Technology).
# HT-p21-9 cells [1] = settings: HT-p21-9 cells; Huang et al. 2009; cited from earlier work
# HT-p21-9 cells [2] = assay: Senescent morphology and beta-Gal staining of HT-p21-9 cells (IPTG-induced p21); format: cell-based, human; settings: for cell divisions / arrest in the presence of nutlin-3a alone: nutlin-3a (10 μM), low cell density
# Protocol: FIG. 1. Nutlin-3a converted senescence into quiescence. a. […] Cells were stained for beta-Gal and photographed (original magnification ×400). Bar scale—50 μm. b. […] Then cells were cultured in fresh medium until colonies become visible. Dishes were stained with crystal violet and photographed on day 4 (control) or on day 9 (IPTG- and nutlin-3a-treated).c. […] Before wash. Live HT-p21-9 cells (expressing GFP for better visualization of live cells) were photographed (original magnification ×100) under blue light. 3 d wash. Three days after drug removal. 9 d wash. Nine days after drug removal, cells were stained with crystal violet and photographed. d. Nutlin-3a dose response. […] After 3 days, the plates were washed and cells were incubated for an additional 9 days in fresh medium, stained with crystal violet and photographed. e. Colonies per dish. […] After 3 days, the plates were washed and cells were incubated for an additional 9 days in fresh medium. Colonies were counted and results are shown as percent of control (IPTG alone). f. Cells per dish. As in panel e. Cells were trypsinized and counted. Results are shown as percent of control (IPTG alone).
# FIG. 5. Senescent versus quiescent morphology. […] Live cells, visualized with GFP (×100). In control, cells underwent 3 divisions, forming micro-colony.
# as §1, §2
# [3] = system: HT-p21-a cells, HT-p16 cells; assay: Preservation of proliferative potential in IPTG-treated HT-p21-a and HT-p16 cells, nutlin-3a versus nutlin-3b; format: cell-based, human; settings: IPTG-regulated p16- and p21-expressing cells
# Text: FIG. 7. […] Then medium was changed and cells were counted after 8 days. b. […] Then medium was changed and cells were counted after 5 days.
# as §1
# HT-p21-GSE56 cells = assay: Proliferation, senescence and proliferative potential of HT-p21-GSE56 cells (p53 function blocked); format: cell-based, human; settings: 3 days, washed, fresh medium
# Protocol: Cell lines and reagents. […] WI-38-Tert, WI-38 are fibroblasts immortalized by telomerase. […] Cells were grown in high glucose DMEM with 10% FC2 serum. WI-38-tert cells were grown in low glucose DMEM with 10% FCS. Rapamycin was obtained from LC Laboratories (Woburn, Mass.). IPTG (final concentration of 50 μg/ml) and FC2 were obtained from Sigma-Aldrich (St. Louis, Mo.).
# HT-p21-9 cells [4] = assay: Protein content per cell (cellular hypertrophy), IPTG-treated HT-p21-9 cells; format: cell-based, human; settings: days 2-5
# Protocol: FIG. 3. […] Immunoblot. […] Immunoblot was performed as described in the methods for Example 1 below. b. Immunoblot. […] Immunoblot was performed as described in Methods. c. […] After 3 days, cells were washed and incubated in fresh medium w/o drugs for an additional 7 days. Cells were counted and are shown as percent of IPTG alone. d. […] Cells were treated with either IPTG alone (black bars) or IPTG plus rapamycin (white bars) or plus nutlin-3a (grey bars). On days 2, 3, 4, and 5 cells were lysed and protein content per well was measured. […] Cells were labeled with [^35S]methionine/cysteine as described in Methods for Example 1.
# p53 = assay: Immunoblot for p53 and p21 in HT-p21-9 and HT-p21-GSE56 cells; format: cell-based, human
# Protocol: Control cells were left untreated (no IPTG). After 1 day, cells were lysed and immunoblot was performed. b. […] As a negative control, parental cells were treated with nutlin-3b (open squares).c-d. […] Control cells were left untreated (no IPTG). c. Morphology. After 3 days, cells were stained for beta-Gal. Scale bars—50 μm.d. Colony formation. After 3 days, cells were washed and incubated in fresh medium w/o drugs for an additional 9 days. Plates were stained with crystal violet and photographed. e. Proliferative potential (PP). After 3 days, HT-p21-GSE56 cells were washed and incubated in fresh medium w/o drugs. Cells were counted and results are shown as percent of IPTG alone.
# as §1
# Immunoblot analysis. Proteins were separated on 4-15% gradient Tris-HCl gels (Bio-Rad). The following antibodies were used: mouse anti-actin from Santa Cruz Biotechnology, rabbit anti-phospho-S6 (Ser240/244) and (Ser235/236), mouse anti-S6, mouse anti-phospho-p70 S6 kinase (Thr389), mouse anti-p21 and anti-p53, rabbit anti-phospho-4E-BP1 (Thr37/46) from Cell Signaling; mouse anti-4E-BP1 from Invitrogen, mouse anti-p53 (Ab-6) from Calbiochem.
smiles,measurement,setting,value
COc1ccc(C2=N[C@@H](c3ccc(Cl)cc3)[C@@H](c3ccc(Cl)cc3)N2C(=O)N2CCNC(=O)C2)c(OC(C)C)c1 [nutlin-3a],senescence induced by H2O2,"WI-38-tert cells; 10 μM nutlin-3a 3 days, washed, 3 more days, beta-Gal",suppressed senescence induced by H2O2
same,proliferative potential in H2O2-treated cells,"WI-38-tert cells; 10 μM nutlin-3a 3 days, washed, 6 more days",partially preserved proliferative potential
same,type of arrest in WI-38-tert cells,WI-38-tert cells; compound alone,caused quiescence
same,cell cycle arrest on induction of p53 by nutlin-3a,HT-p21-9 cells [1],reversible cell cycle arrest (quiescence)
same,cell morphology and SA-beta-Gal staining,"HT-p21-9 cells [2]; 10 μM nutlin-3a alone, 3 days","remained small, lean and SA-beta-Gal-negative"
same,senescent morphology caused by IPTG,"HT-p21-9 cells [2]; IPTG plus compound (10 μM nutlin-3a), 3 days",prevented the senescent morphology caused by IPTG; also recorded: suppressed senescence in IPTG-treated HT-p21-9 cells only
same,cytostatic effect of IPTG,HT-p21-9 cells [2]; IPTG plus nutlin-3a,did not abrogate the cytostatic effect of IPTG
same,cell divisions / arrest in the presence of nutlin-3a alone,HT-p21-9 cells [2]; 3 days,underwent one division and did not proliferate further
same,cell divisions / arrest in the presence of nutlin-3a alone,"HT-p21-9 cells [2]; 3 days, listed as Nutlin-3a",arrested after one division with normal cell morphology
same,conversion of senescence into quiescence (preservation of proliferative potential),[3],preservation of proliferative potential
same,colony formation and proliferative potential (PP) in IPTG-treated HT-p21-GSE56 cells,HT-p21-GSE56 cells,did not preserve colony formation and proliferative potential (PP)
same,protein content per cell,HT-p21-9 cells [4],decreased the protein content per cell
same,induction of p21 by IPTG in HT-p21-GSE56 cells,p53; 1 day,did not affect this induction
same,p53 levels in HT-p21-GSE56 cells,p53; 1 day,did not affect p53 levels in HT-p21-GSE56 cells
same,p53 levels in HT-p21 cells,p53; 1 day,induced p53 in HT-p21 cells
same,levels of p21 induced by IPTG,"p53; HT-p21 cells, IPTG plus compound",neither abrogated nor diminished the levels of p21; also recorded: did not prevent induction of p21 by IPTG
